We go through two molecules from patent publication US20200315923A1, “DESINFECTANT BONE AND DENTAL FILLER MATERIALS COMPRISING LIPOSOMES” (Cementic, priority 2017, published 2020).

One assay deals with Enterococcus faecalis. The assay can be described thus: Agarose gel diffusion test. It is filed as cell-based. The conditions noted are these: agar diffusion, this experiment. Here is the method: An adaptation of the agarose gel diffusion test was tested and validated for dental cements. The analysis was performed using the plaque assay. In the case of a test on samples of various concentrations, the ICM can be estimated using a software available on an on-line platform developed by Bonev in 2008 (http://agardiffusion.com) (Principles of assessing bacterial susceptibility to antibiotics using the agar diffusion method J. Antimic. Chemoth., 61 12951301).
For this experiment, liposomes and disinfecting fillers were produced as described in 8.1 and 7.6 a.
3 mm circular wells were punched using a disposable biopsy needle into Mueller-Hinton agar. The agar was then homogeneously inoculated with 100 μL of a solution of Enterococcus faecalis adjusted to a concentration of 0.5 MacFarland. Bio Root™ cement was then prepared (500 mg powder+250 μL liquid+/−35 μL CEM CHX 0918-001). The wells were then filled with cement using a pipetman for viscous solutions. The agar plates were then incubated at 37° C. under aerobic conditions for 24 hours. The area of growth inhibition was then measured using a ruler (FIG. 26).
To measure the effect of the prolonged release of antimicrobial agent, agar plates were prepared as above but without being inoculated with E. faecalis. […] The plates were then incubated for 24 hours and the lysis areas measured with a ruler.
(In general: In agar diffusion tests the substance spreads into inoculated agar from a disc or well.)

The next assay relates to Gram-bacteria. The conditions noted are these: cited from earlier work.
Another assay deals with Gram+ bacteria. The conditions noted are these: cited from earlier work.

As to `N=C(NCCCCCCNC(=N)NC(=N)Nc1ccc(Cl)cc1)NC(=N)Nc1ccc(Cl)cc1.O=C(O)[C@H](O)[C@@H](O)[C@H](O)[C@H](O)CO.O=C(O)[C@H](O)[C@@H](O)[C@H](O)[C@H](O)CO` [chlorhexidine digluconate], the “calculated MIC” value in the assay on Enterococcus faecalis is 15.5 µg/mL.

Take `[H]/N=C(\N/C(=N/[H])NCCCCCCNC(=N)NC(=N)Nc1ccc(Cl)cc1)Nc1ccc(Cl)cc1` [chlorhexidine]: the “MIC (concentration corresponding to the elimination of 90% of the bacteria)” value in the assay with Gram-bacteria is 40 µg/mL; in the assay on Gram+ bacteria, 22 µg/mL.
